In PubChem BioAssay (NCI) one finds GI50 and TGI data, which are given here for 11 compounds.

Some test systems named below: SNB-75 CNS; HOP-92 NSCLC; SF-295 CNS; MOLT-4 leukemia; HL-60(TB) leukemia; NCI-H522 lung; MCF7 breast; LOX IMVI melanoma; KM12 colon; 786-0 renal.
What all share (assay): NCI anticancer screen, dose series, 48 h

“And” between values parts separate entries of the source, which are not always exact repeats. Identical values can stand only once.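 Growth conditions: 96-well plates. Treatment: test compound, 48 hours, 5 concentrations. Analysis: linear interpolation between bracketing concentrations; unreached endpoints set to highest concentration. Abbreviation: GI50, concentration required for 50% inhibition of growth. TGI is the concentration that stops growth completely.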

Turning to `COc1ccc(-c2[nH]c3ccccc3c2-c2ccc(OC)cc2)cc1`, the GI50 in the experiment on SNB-75 CNS was 1.47 µM; in the experiment on HOP-92 NSCLC it was 2.24 µM; in the experiment with SF-295 CNS, 3.33 µM; in the experiment with MOLT-4 leukemia, 2.68 µM; with HL-60(TB) leukemia it was 2.03 µM; with NCI-H522 lung it was 12 µM. For the same compound, the GI50 was 2.87 µM in the experiment with MCF7 breast, 3.77 µM with LOX IMVI melanoma, 2.48 µM in the experiment on KM12 colon and 2.95 µM with 786-0 renal. For the same compound, the TGI with SNB-75 CNS stood at 6.61 µM; with HOP-92 NSCLC it was 9.4 µM; with SF-295 CNS, 14 µM; with MOLT-4 leukemia it was 9.62 µM; with HL-60(TB) leukemia, 6.03 µM; in the experiment with NCI-H522 lung, 40.7 µM. In addition, the TGI amounted to 12.4 µM in the experiment on MCF7 breast, 14.8 µM with LOX IMVI melanoma, 6.64 µM in the experiment with KM12 colon and 7.64 µM in the experiment on 786-0 renal.

`CCCN(CCS(C)(=O)=O)Cc1ccc(-c2ccc3ncnc(Nc4ccc(OCc5cccc(F)c5)c(Cl)c4)c3c2)o1`: the GI50 with SNB-75 CNS was more than 25 µM; with HOP-92 NSCLC, more than 25 µM; in the experiment on SF-295 CNS, more than 25 µM; in the experiment with MOLT-4 leukemia it was 7.31 µM; in the experiment on HL-60(TB) leukemia it was 8.14 µM; with NCI-H522 lung, 0.525 µM. Also, the GI50 was more than 20.2 µM in the experiment on MCF7 breast, more than 25 µM in the experiment on LOX IMVI melanoma, more than 25 µM with KM12 colon and more than 25 µM in the experiment on 786-0 renal. Moreover, the TGI in the experiment on SNB-75 CNS, in the experiment on HOP-92 NSCLC, with SF-295 CNS, in the experiment with MOLT-4 leukemia, in the experiment on HL-60(TB) leukemia and with NCI-H522 lung was more than 25 µM each time. Further, the TGI in the experiment with MCF7 breast, with LOX IMVI melanoma, in the experiment with KM12 colon and in the experiment on 786-0 renal was more than 25 µM in each case.

For the compound `NC(=O)c1csc(C2OC(CO)C(O)C2O)n1` (stereo not given), the GI50 with SNB-75 CNS was 26.5 µM and 40.8 µM; in the experiment with SF-295 CNS, > 43.9 µM and 13.6 µM; in the experiment on MOLT-4 leukemia it was 17.8 µM; in the experiment on HL-60(TB) leukemia it was 36.5 µM; in the experiment with NCI-H522 lung it was 42.7 µM; in the experiment with MCF7 breast, 76.3 µM. The GI50 is more than 53.2 µM in the experiment on LOX IMVI melanoma, 70.8 µM in the experiment with KM12 colon and 15.5 µM in the experiment on 786-0 renal. Further, the TGI was 7140 µM with SNB-75 CNS; 1300 µM in the experiment with HOP-92 NSCLC; more than 8180 µM in the experiment on SF-295 CNS; 3600 µM with MOLT-4 leukemia; 3330 µM with HL-60(TB) leukemia; 678 µM in the experiment with NCI-H522 lung. Besides, the TGI in the experiment on MCF7 breast was determined as 7340 µM; in the experiment with LOX IMVI melanoma it was 7900 µM; in the experiment on KM12 colon, 6070 µM; in the experiment with 786-0 renal it was 3460 µM.

Regarding `O=C(O)CN1CCN(CC(=O)O)CC(=O)[O][Hg][O]C(=O)C1`, the GI50 in the experiment on SNB-75 CNS was 23.6 µM; with HOP-92 NSCLC, 20.6 µM; in the experiment with SF-295 CNS, more than 100 µM; with MOLT-4 leukemia, 9.02 µM; with HL-60(TB) leukemia, 13.7 µM; in the experiment on NCI-H522 lung, 6.75 µM. The GI50 with MCF7 breast was 20.3 µM; in the experiment on LOX IMVI melanoma it was 10.3 µM; with KM12 colon, more than 100 µM; in the experiment with 786-0 renal it was 17.1 µM. The TGI in the experiment on SNB-75 CNS is 66.5 µM; in the experiment with HOP-92 NSCLC it was 37.8 µM; in the experiment with SF-295 CNS it was more than 100 µM; with MOLT-4 leukemia it was 31.9 µM; in the experiment on HL-60(TB) leukemia, 34.7 µM; in the experiment with NCI-H522 lung it was more than 47.6 µM. The TGI in the experiment with MCF7 breast was 45.1 µM; in the experiment on LOX IMVI melanoma, 26.7 µM; in the experiment with KM12 colon it was more than 100 µM; in the experiment on 786-0 renal it was 32.2 µM.

Turning to `Nc1nc(OCc2ccccc2)c2[nH]cnc2n1`, the GI50 in the experiment on SNB-75 CNS was 13.9 µM; with HOP-92 NSCLC, 7.9 µM and 27.2 µM; in the experiment with SF-295 CNS, 35.2 µM and 24.1 µM; in the experiment on MOLT-4 leukemia, 88.4 µM and 33.5 µM; in the experiment on HL-60(TB) leukemia, 39.8 µM and 17.7 µM; in the experiment on NCI-H522 lung, 23.6 µM and 16.5 µM. The GI50 in the experiment with MCF7 breast is 41.9 µM and 41.8 µM; in the experiment with LOX IMVI melanoma it was 34 µM and 26.2 µM; in the experiment with KM12 colon, 59.6 µM and 62 µM; in the experiment with 786-0 renal, 40.1 µM and 27.8 µM. Besides, the TGI with SNB-75 CNS is 67.3 µM and 86.1 µM; in the experiment with HOP-92 NSCLC it was 89.2 µM and 239 µM and 183 µM; in the experiment with SF-295 CNS, 395 µM and 118 µM; with MOLT-4 leukemia it was 200 µM and 126 µM; in the experiment with HL-60(TB) leukemia it was 181 µM and 57.8 µM; with NCI-H522 lung, 135 µM and 69.4 µM. Also, the TGI in the experiment on MCF7 breast is 355 µM; with LOX IMVI melanoma it was 273 µM and 115 µM; in the experiment on KM12 colon, 400 µM and 307 µM; with 786-0 renal, 400 µM and 96.9 µM.

With `CC(C)C[C@H](NC(=O)CNC(=O)c1cc(Cl)ccc1Cl)B1OC(=O)CC(CC(=O)O)(C(=O)O)O1` (stereo not given in full), the GI50 is 0.182 µM in the experiment with SNB-75 CNS; 0.0219 µM with HOP-92 NSCLC; 0.071 µM in the experiment on SF-295 CNS; 0.0366 µM in the experiment on MOLT-4 leukemia; 0.0533 µM in the experiment with HL-60(TB) leukemia; 0.0217 µM with NCI-H522 lung. For the same compound, the GI50 is 0.0391 µM in the experiment on MCF7 breast, 0.0325 µM with LOX IMVI melanoma, 0.105 µM with KM12 colon and 0.0655 µM with 786-0 renal. For the same compound, the TGI was 0.504 µM in the experiment on SNB-75 CNS; 0.173 µM in the experiment on HOP-92 NSCLC; 1.14 µM in the experiment with SF-295 CNS; more than 100 µM with MOLT-4 leukemia; more than 100 µM in the experiment with HL-60(TB) leukemia; 0.056 µM in the experiment on NCI-H522 lung. Besides, the TGI with MCF7 breast is 43.1 µM; with LOX IMVI melanoma, 0.12 µM; in the experiment on KM12 colon, 0.607 µM.

As to `CC1=C2[C@@H](CC1)[C@]1(C)O[C@@](c3ccccc3)(C[C@H]1OC(=O)CO)[C@H]2OC(=O)/C=C/c1ccccc1`, the GI50 in the experiment with SNB-75 CNS was 14.2 µM; with HOP-92 NSCLC, 13.7 µM; in the experiment on SF-295 CNS, 12.8 µM; in the experiment with MOLT-4 leukemia, 13 µM; with HL-60(TB) leukemia, 7.43 µM; with NCI-H522 lung it was 16.8 µM. The GI50 in the experiment with MCF7 breast was 8.86 µM; with LOX IMVI melanoma, 15.9 µM; with KM12 colon, 14.8 µM; in the experiment with 786-0 renal it was 5.23 µM. Also, the TGI in the experiment with SNB-75 CNS worked out at 53.6 µM; in the experiment on HOP-92 NSCLC, 29.7 µM; in the experiment with SF-295 CNS it was 31.7 µM; in the experiment with MOLT-4 leukemia it was 45.1 µM; with HL-60(TB) leukemia, 27.4 µM; with NCI-H522 lung it was 45.4 µM. Moreover, the TGI in the experiment on MCF7 breast came to 32.1 µM; with LOX IMVI melanoma, 32.3 µM; in the experiment with KM12 colon, 34.7 µM; with 786-0 renal, 25.6 µM.

Consider `O=C1OCC2=C1C(c1ccccc1)c1cc3c(cc1N2)OCO3` (stereo not given), for which the GI50 in the experiment with SNB-75 CNS is 0.0201 µM; in the experiment on HOP-92 NSCLC, 0.141 µM; in the experiment with SF-295 CNS it was 0.0169 µM; in the experiment with MOLT-4 leukemia, 0.036 µM; with HL-60(TB) leukemia, 0.0214 µM; with NCI-H522 lung it was less than 0.011 µM. Also, the GI50 was 0.0316 µM in the experiment on MCF7 breast, 0.042 µM in the experiment on LOX IMVI melanoma, less than 0.0167 µM in the experiment on KM12 colon and 0.055 µM in the experiment with 786-0 renal. The TGI with SNB-75 CNS is 1.16 µM; with HOP-92 NSCLC it was 7.63 µM; in the experiment on HL-60(TB) leukemia it was 0.0573 µM; with NCI-H522 lung, 1.56 µM; with MCF7 breast it was 17.3 µM; in the experiment on LOX IMVI melanoma it was more than 100 µM. This compound gave a TGI with 786-0 renal of more than 69.3 µM.

Take `CN(C)CCCn1c(=O)c2ccccc2c2ccccc21`: the GI50 in the experiment with SNB-75 CNS is 13.9 µM; in the experiment on HOP-92 NSCLC it was 17.9 µM; in the experiment with SF-295 CNS it was 7.69 µM; in the experiment with MOLT-4 leukemia it was 6.46 µM; with HL-60(TB) leukemia, 21.8 µM; with NCI-H522 lung, 12.5 µM. Besides, the GI50 is 7.24 µM in the experiment with MCF7 breast, 5.13 µM in the experiment with LOX IMVI melanoma, 15.5 µM in the experiment with KM12 colon and 12.5 µM in the experiment on 786-0 renal. Also, the TGI with SNB-75 CNS was 28.6 µM; in the experiment on HOP-92 NSCLC, 67.2 µM; in the experiment on SF-295 CNS it was 32.8 µM; with MOLT-4 leukemia it was more than 100 µM; in the experiment with HL-60(TB) leukemia, 69.5 µM; in the experiment on NCI-H522 lung it was 30.6 µM. Also, the TGI in the experiment on MCF7 breast is more than 100 µM; in the experiment on LOX IMVI melanoma it was 44 µM; in the experiment with KM12 colon, 66.7 µM; in the experiment with 786-0 renal it was more than 100 µM.

`O=C(/C=C/c1ccccc1)CCN1CCOCC1`: the TGI with SNB-75 CNS worked out at 51.6 µM; with HOP-92 NSCLC, 38.1 µM; in the experiment with SF-295 CNS it was 38.8 µM; with MOLT-4 leukemia, 29.7 µM; in the experiment on HL-60(TB) leukemia it was 16.4 µM; in the experiment with NCI-H522 lung it was 8.13 µM. The TGI in the experiment with MCF7 breast amounted to 24.1 µM; with LOX IMVI melanoma it was 24.8 µM; with KM12 colon it was 18.6 µM; in the experiment with 786-0 renal, 18.8 µM.

Take `CNCCCNCCCCNCCCN1C(=O)c2ccc3c4c(ccc(c24)C1=O)C(=O)N(CCCNCc1ccccc1OC)C3=O`: the GI50 with SNB-75 CNS was 1.05 µM; in the experiment with HOP-92 NSCLC, 2.21 µM; with SF-295 CNS, 1.33 µM; with MOLT-4 leukemia, 5.21 µM; in the experiment with HL-60(TB) leukemia, 3.68 µM; in the experiment on NCI-H522 lung, 5.62 µM. Also, the GI50 with MCF7 breast is 2.77 µM; with LOX IMVI melanoma it was 3.03 µM; in the experiment on KM12 colon it was 2.75 µM; with 786-0 renal, 3.36 µM. Moreover, the TGI in the experiment with SNB-75 CNS stood at 13.3 µM; with HOP-92 NSCLC, 18.9 µM; in the experiment with SF-295 CNS, 12.8 µM; with MOLT-4 leukemia it was 38.5 µM; with HL-60(TB) leukemia, 23.4 µM; with NCI-H522 lung it was 27.2 µM. Besides, the TGI was found to be 13 µM in the experiment with MCF7 breast, 14 µM in the experiment with LOX IMVI melanoma, 17.4 µM in the experiment with KM12 colon and 29.8 µM with 786-0 renal.
